According to patent US7960588B2, “Benzyl cycloalkyl sphingosine 1-phosphate receptor modulators” (University of Virginia Patent Foundation, priority 2007, dated 2011):

Test system: blood lymphocytes
Assay: Lymphopenia assay (circulating lymphocyte counts after oral gavage)
Type: in vivo
Conditions: mice; for lymphopenia (circulating lymphocyte counts): single dose 10 mg/kg in 2% hydroxypropyl beta-cyclodextrin, blood drawn after 18 hours
Procedure: The test compounds VPC122096 (benzylcyclopentyl), VPC122093 (benzylcyclohexyl) or VPC122097 (benzylcycloheptyl) compounds are dissolved in 2% hydroxypropyl beta-cyclodextrin and administered to mice by oral gavage at doses from 0.01 to 10 mg/kg body weight. After 24 hours (or other specified times), the mice are lightly anesthetized and ca. 0.1 ml of blood is drawn from the orbital sinus. The number of lymphocytes (in thousands per microliter of blood; normal is 4-11) is determined using a Hemavet blood analyzer. There were three mice per group, male, 10-11 weeks old, and the strain was mixed sv129×C57BL/6.
The test compounds VPC122096, VPC122097, or VPC122093 were dissolved in 2% aqueous hydroxypropyl beta-cyclodextrin and introduced into mice by oral gavage at 10 mg/kg (Three mice per group). Blood was drawn after 18 hours and examined. […] The results are illustrated in FIG. 3.
The test compound VPC122096, was dissolved in 2% aqueous hydroxypropyl beta-cyclodextrin (vehicle) and administered to mice orally (gavage) at doses of 0.01 mg/kg, 0.03 mg/kg, 0.1 mg/kg, 0.3 mg/kg, 1 mg/kg, and 3 mg/kg to provide a dose response curve (three-four mice per group, adult, C57Bl/6 strain). The blood samples were taken at 18 hours and 42 hours. Three mice per group, male, 10-11 week old sv129/C57Bl6 strain. The results are illustrated in FIG. 4. The ordinate represents lymphocytes in K/μl. The abscissa represents time in days after administration of a single dose. The ordinate represents lymphocytes in K/μl. The abscissa represents dose in milligram compound per kilogram body weight (mpk).
The duration of the effect of the test compounds was evaluated after administration of test compound VPC122096, dissolved in 2% aqueous hydroxypropyl beta-cyclodextrin (vehicle) and administered to mice orally (gavage). […] The blood samples were taken at 16 hours, 4 days, 12 days, and 19 days. FIG. 5 illustrates total blood lymphocyte count following the single dose of VPC122096 or vehicle.

SMILES	lymphopenia (circulating lymphocyte counts) (oral gavage)	lymphopenia, duration of the effect (total blood lymphocyte count) (oral gavage, single dose (1.0 mg/kg per FIG. 5), blood samples at 16 hours, 4 days, 12 days, 19 days)	duration of lymphopenia (single ED95 dose, oral)
CCCCCCCCc1ccc(CC2CCCC(CO)C2N)cc1 (centres unmarked) [VPC122093]	evoked lymphopenia		
CCCCCCCCc1ccc(CC2CCCC2(N)CO)cc1 (centres unmarked) [VPC122096, (1-amino-2-(4′-octylbenzyl)cyclopentyl)methanol]	evoked lymphopenia	evoked a long lasting lymphopenia	a week or more
CCCCCCCCc1ccc(CC2CCCCCC2(N)CO)cc1 (centres unmarked) [VPC122097]	evoked lymphopenia		
